Structures can show the parent of a compound that is named as a salt.
Row | melting point [°C] | SMILES
1 | 194 to 195 | N#Cc1cccc(-n2cnc(-c3ccccn3)n2)c1 [Example 2, 3-(3-pyridin-2-yl-1H-1,2,4-triazol-1-yl)benzonitrile]
2 | 185 to 188 | N#Cc1cccc(-c2ncn(-c3ccccn3)n2)c1 (as salt: hydrochloride) [Example 3, 3-(1-pyridin-2-yl-1H-1,2,4-triazol-3-yl)benzonitrile]
3 | 125 to 128 | Clc1cccc(-c2ncn(-c3ccccn3)n2)c1 (as salt: hydrochloride) [Example 4, 2-[3-(3-chlorophenyl)-1H-1,2,4-triazol-1-yl]pyridine]
4 | 221 to 223 | Clc1cccc(-n2cnc(-c3ccccn3)n2)c1 (as salt: hydrochloride) [Example 1, 2-[1-(3-chlorophenyl)-1H-1,2,4-triazol-3-yl]pyridine]
